These results are taken from US10858335B2 (Rigel Pharmaceuticals, Inc., priority 2014, dated 2020).

SMILES strings stand for the structures.

The test system of this assay is GDF8 signaling (p-SMAD-3 (Ser423/425)). The assay can be described thus: AlphaScreen SureFire SMAD3 (p-Ser423/425) assay, GDF8-stimulated cells (GDF pSMAD). The settings on record: Mus musculus, MPC-11, GDF8-stimulated pSMAD3, MPC11; tested as the salt form given; read-out: GDF pSMAD (MPC11) (μM), inhibition of GDF8 signaling. It is filed as cell-based. A general note: Alpha assays give light when donor and acceptor beads are brought close together.

`COc1cc(-c2ncccc2-c2ccc3ncnc(N)c3c2)c(C)cc1F` [compound 1022, 6-(2-(4-fluoro-5-methoxy-2-methylphenyl)pyridin-3-yl)quinazolin-4-amine]: the IC50 is 13.7 µM.

On to `Nc1ncnc2ccc(-c3cccnc3-c3cc(C(F)F)ccc3F)cc12` [compound 1023, 6-(2-(5-(difluoromethyl)-2-fluorophenyl)pyridin-3-yl)quinazolin-4-amine], for which the IC50 stood at 0.0958 µM.

For `Cc1ccc(C(F)F)cc1-c1ncccc1-c1ccc2ncnc(N)c2c1` [compound 1024, 6-(2-(5-(difluoromethyl)-2-methylphenyl)pyridin-3-yl)quinazolin-4-amine], the IC50 turned out to be 0.577 µM.

Turning to `Cc1cc(F)c(C(F)F)cc1-c1ncccc1-c1ccc2ncnc(N)c2c1` [compound 1025, 6-(2-(5-(difluoromethyl)-4-fluoro-2-methylphenyl)pyridin-3-yl)quinazolin-4-amine], the IC50 turned out to be 0.958 µM.

Take `Cc1cc(-c2ncccc2-c2ccc3ncnc(NCC(N)=O)c3c2)ccc1F` [compound 1026, 2-((6-(2-(4-fluoro-3-methylphenyl)pyridin-3-yl)quinazolin-4-yl)amino)acetamide]: the IC50 is 0.737 µM.

For `Cc1cc(-c2ncccc2-c2ccc3ncnc(NC(C)C(N)=O)c3c2)ccc1F` (stereo not drawn) [compound 1027, 2-((6-(2-(4-fluoro-3-methylphenyl)pyridin-3-yl)quinazolin-4-yl)amino)propanamide], the IC50 was 10.8 µM.

In the case of `COC(=O)CNc1ncnc2ccc(-c3cccnc3-c3ccc(F)c(C)c3)cc12` [compound 1028, methyl (6-(2-(4-fluoro-3-methylphenyl)pyridin-3-yl)quinazolin-4-yl)glycinate], the IC50 was found to be 10.4 µM.

Take `Cc1cc(-c2ncccc2-c2ccc3ncnc(NCCC(N)=O)c3c2)ccc1F` [compound 1029, 3-((6-(2-(4-fluoro-3-methylphenyl)pyridin-3-yl)quinazolin-4-yl)amino)propanamide]: the IC50 turned out to be 2.61 µM.

On to `Nc1ncnc2ccc(-c3cccnc3-c3cccc(OC4COC4)c3)cc12` [compound 1030, 6-(2-(3-(oxetan-3-yloxy)phenyl)pyridin-3-yl)quinazolin-4-amine], for which the IC50 came to 1.14 µM.

`O=C(O)CNc1ncnc2ccc(-c3cccnc3-c3cc(Cl)ccc3F)cc12` [compound 1031, (6-(2-(5-chloro-2-fluorophenyl)pyridin-3-yl)quinazolin-4-yl)glycine]: the IC50 was 15.8 µM.

Regarding `Cn1ccc(Nc2ncnc3ccc(-c4cccnc4-c4cc(Cl)ccc4F)cc23)n1` [compound 1032, 6-(2-(5-chloro-2-fluorophenyl)pyridin-3-yl)-N-(1-methyl-1H-pyrazol-3-yl)quinazolin-4-amine], the IC50 came out at 1.09 µM.

As for `Fc1ccc(Cl)cc1-c1ncccc1-c1ccc2ncnc(Nc3cn[nH]c3)c2c1` [compound 1033, 6-(2-(5-chloro-2-fluorophenyl)pyridin-3-yl)-N-(1H-pyrazol-4-yl)quinazolin-4-amine], the IC50 was found to be 1.58 µM.

As for `Cc1c(F)cc(C(F)F)cc1-c1ncccc1-c1ccc2ncnc(N)c2c1` [compound 1034, 6-(2-(5-(difluoromethyl)-3-fluoro-2-methylphenyl)pyridin-3-yl)quinazolin-4-amine], the IC50 was determined as 0.342 µM.

Take `Nc1ncnc2ccc(-c3cccnc3-c3cc(Cl)cc(F)c3F)cc12` [compound 1035, 6-(2-(5-chloro-2,3-difluorophenyl)pyridin-3-yl)quinazolin-4-amine]: the IC50 amounted to 0.161 µM.

Regarding `Nc1ncnc2ccc(-c3cccnc3-c3cc(Cl)ccc3F)nc12` [compound 1039], the IC50 was found to be 0.0438 µM.

Turning to `CN1CCN(CCCNc2ncnc3ccc(-c4cccnc4-c4cc(Cl)ccc4F)cc23)CC1` [compound 1046], the IC50 came out at 1.63 µM.

In the case of `Fc1cc(F)c(F)c(-c2ncccc2-c2ccn3nccc3n2)c1` [compound 1052, 6-(2-(4-Fluoro-2,5-dimethylphenyl)pyridin-3-yl)-[,2,4]triazolo[1,5-a]pyridine], the IC50 came out at 3.61 µM.

On to `Fc1cc(-c2ncccc2-c2ccn3nccc3n2)c(F)c(F)c1F` [compound 1053], for which the IC50 came to 0.368 µM.
